Results as given in patent US20260022142A1, “MACROCYCLIC IMMUNOMODULATORS” (Bristol-Myers Squibb Company, priority 2022, published 2026).
Bridge positions count the residues as written; N and C are the ends. Square brackets hold non-standard residues; d marks the D form. Peptide text beside a SMILES is read from it. * marks the point of attachment. ξ: configuration not given here. Bip = N[C@@H](Cc1ccc(-c2ccccc2)cc1)C(=O)O; Phe(3-Me) = Cc1cccc(C[C@H](N)C(=O)O)c1; hArg = N=C(N)NCCCC[C@H](N)C(=O)O; Cha = N[C@@H](CC1CCCCC1)C(=O)O; Cit = NC(=O)NCCC[C@H](N)C(=O)O; aThr = C[C@H](O)[C@H](N)C(=O)O; Thr(3ξ) = CC(O)[C@H](N)C(=O)O; 12Ado = NCCCCCCCCCCCC(=O)O; Carboxymethyl = O=C(O)C*; Orn = NCCC[C@H](N)C(=O)O; Aun = NCCCCCCCCCCC(=O)O; Dab = NCC[C@H](N)C(=O)O; AEEA = NCCOCCOCC(=O)O; Sar = CNCC(=O)O

Biological target: T1, PD-1/PD-L1 interaction (PE-labeled human PD-L1-Ig binding to Jurkat cell line over-expressing human PD-1) (Homo sapiens, UniProt Q15116)
T1 construct: expressed in transfected cells; host or cells: Jurkat
T1 sequence (Q15116 25-288): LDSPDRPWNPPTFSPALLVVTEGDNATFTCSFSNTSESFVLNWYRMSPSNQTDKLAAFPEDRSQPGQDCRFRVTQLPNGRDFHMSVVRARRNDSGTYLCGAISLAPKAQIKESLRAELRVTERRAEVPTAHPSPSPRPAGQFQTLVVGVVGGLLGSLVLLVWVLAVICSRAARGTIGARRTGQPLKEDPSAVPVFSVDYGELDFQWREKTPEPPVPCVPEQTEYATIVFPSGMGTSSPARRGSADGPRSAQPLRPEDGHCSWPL
Experiment: Jurkat-PD-1 Cell Binding High-Content Screening Assay (CBA)
Assay type: cell-based
Details: Jurkat cell line over-expressing human PD-1; PE-labeled PD-L1-Ig 20 nM final; read-out: Jurkat hPD1-PDL1 IC50
Method in brief: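 Read-out is high-content imaging of cell-bound phycoerythrin-tagged PD-L1-Ig on fixed, Hoechst-counterstained Jurkat cells that over-express human PD-1. Compound exposure lasts 2 h at 37° C before the labeled ligand (20 nM final) is added for a further hour.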

Structure (SMILES) | IC50
Cc1cccc(C[C@@H]2NC(=O)[C@H](CC(=O)O)NC(=O)[C@H](Cc3ccc(OCC(=O)O)cc3)NC(=O)[C@H](CCCNC(=N)N)NC(=O)CSC[C@@H](C(=O)N[C@@H](CCN)C(=O)NCCCCCCCCCCC(=O)O)NC(=O)[C@H](C(C)O)NC(=O)[C@H](C(C)C)NC(=O)[C@H](CC3CCCCC3)NC(=O)[C@H](CCN)NC(=O)[C@@H](CC(C)C)NC(=O)[C@H](CCCN)NC(=O)[C@H](CCC(N)=O)NC(=O)[C@H](Cc3ccc(-c4ccccc4)cc3)NC(=O)[C@H](C(C)C)NC2=O)c1 (stereo partly drawn) [Compound 3355] ({CH2CO}-RY(Carboxymethyl)D[Phe(3-Me)]V[Bip]Q[Orn][dL][Dab][Cha]V[Thr(3ξ)]C[Dab][Aun]-OH; thioether N-14) | 8.1 nM
Cc1cccc(C[C@@H]2NC(=O)[C@H](CC(=O)O)NC(=O)[C@H](Cc3ccc(OCC(=O)O)cc3)NC(=O)[C@H](CCCNC(=N)N)NC(=O)CSC[C@@H](C(=O)N[C@@H](CCN)C(=O)NCCCCCCCCCCC(=O)O)NC(=O)[C@H](CCCN)NC(=O)[C@H](C(C)C)NC(=O)[C@H](CC3CCCCC3)NC(=O)[C@H](CCN)NC(=O)[C@@H](CC(C)C)NC(=O)[C@H](CCCN)NC(=O)[C@H](CCC(N)=O)NC(=O)[C@H](Cc3ccc(-c4ccccc4)cc3)NC(=O)[C@H](C(C)C)NC2=O)c1 [Compound 3356] ({CH2CO}-RY(Carboxymethyl)D[Phe(3-Me)]V[Bip]Q[Orn][dL][Dab][Cha]V[Orn]C[Dab][Aun]-OH; thioether N-14) | 6.8 nM
Cc1cccc(C[C@@H]2NC(=O)[C@H](CC(=O)O)NC(=O)[C@H](Cc3ccc(OCC(=O)O)cc3)NC(=O)[C@H](CCCCNC(=N)N)NC(=O)CSC[C@@H](C(=O)N[C@@H](CCN)C(=O)NCCCCCCCCCCC(=O)O)NC(=O)[C@H](CCCN)NC(=O)[C@H](C(C)C)NC(=O)[C@H](CC3CCCCC3)NC(=O)[C@H](CCN)NC(=O)[C@@H](CC(C)C)NC(=O)[C@H](CCN)NC(=O)[C@H](CCC(N)=O)NC(=O)[C@H](Cc3ccc(-c4ccccc4)cc3)NC(=O)[C@H](C(C)C)NC2=O)c1 [Compound 3359] ({CH2CO}-[hArg]Y(Carboxymethyl)D[Phe(3-Me)]V[Bip]Q[Dab][dL][Dab][Cha]V[Orn]C[Dab][Aun]-OH; thioether N-14) | 4.3 nM
Cc1cccc(C[C@@H]2NC(=O)[C@H](CC(=O)O)NC(=O)[C@H](Cc3ccc(OCC(=O)O)cc3)NC(=O)[C@H](CCCNC(=N)N)NC(=O)CSC[C@@H](C(=O)N[C@@H](CCN)C(=O)NCCCCCCCCCCC(=O)O)NC(=O)[C@H](CCCNC(N)=O)NC(=O)[C@H](C(C)C)NC(=O)[C@H](CC3CCCCC3)NC(=O)[C@H](CCN)NC(=O)[C@@H](CC(C)C)NC(=O)[C@H](CCN)NC(=O)[C@H](C(C)C)NC(=O)[C@H](Cc3ccc(-c4ccccc4)cc3)NC(=O)[C@H](C(C)C)NC2=O)c1 [Compound 3360] ({CH2CO}-RY(Carboxymethyl)D[Phe(3-Me)]V[Bip]V[Dab][dL][Dab][Cha]V[Cit]C[Dab][Aun]-OH; thioether N-14) | 8.1 nM
CC(C)C[C@H]1NC(=O)[C@H](CCCN)NC(=O)[C@H](C(C)C)NC(=O)[C@H](Cc2ccc(-c3ccccc3)cc2)NC(=O)[C@H](C(C)C)NC(=O)[C@H](Cc2c[nH]c3ccccc23)NC(=O)[C@H](CC(=O)O)NC(=O)[C@H](Cc2ccc(OCC(=O)O)cc2)NC(=O)[C@H](CCCCNC(=N)N)NC(=O)CSC[C@@H](C(=O)N(C)CC(=O)NCCOCCOCC(=O)N[C@@H](CCCN)C(=O)NCCCCCCCCCCCC(=O)O)NC(=O)[C@H](CO)NC(=O)[C@H](C(C)C)NC(=O)[C@H](CC2CCCCC2)NC(=O)[C@H](CCN)NC1=O [Compound 3361] ({CH2CO}-[hArg]Y(Carboxymethyl)DWV[Bip]V[Orn][dL][Dab][Cha]VSC[Sar][AEEA][Orn][12Ado]-OH; thioether N-14) | 18.7 nM
Cc1cccc(C[C@@H]2NC(=O)[C@H](CC(=O)O)NC(=O)[C@H](Cc3ccc(OCC(=O)O)cc3)NC(=O)[C@H](CCCNC(=N)N)NC(=O)CSC[C@@H](C(=O)N[C@@H](CCN)C(=O)NCCCCCCCCCCC(=O)O)NC(=O)[C@H](C(C)O)NC(=O)[C@H](C(C)C)NC(=O)[C@H](CC3CCCCC3)NC(=O)[C@H](CCN)NC(=O)[C@@H](CC(C)C)NC(=O)[C@H](CCC(N)=O)NC(=O)[C@H](Cc3ccc(O)cc3)NC(=O)[C@H](Cc3ccc(-c4ccccc4)cc3)NC(=O)[C@H](Cc3ccc(O)cc3)NC2=O)c1 (stereo partly drawn) [Compound 3370] ({CH2CO}-RY(Carboxymethyl)D[Phe(3-Me)]Y[Bip]YQ[dL][Dab][Cha]V[Thr(3ξ)]C[Dab][Aun]-OH; thioether N-14) | 12.6 nM
Cc1cccc(C[C@@H]2NC(=O)[C@H](CC(=O)O)NC(=O)[C@H](Cc3ccc(OCC(=O)O)cc3)NC(=O)[C@H](CCCNC(=N)N)NC(=O)CSC[C@@H](C(=O)N[C@@H](CCN)C(=O)NCCCCCCCCCCC(=O)O)NC(=O)[C@H](C(C)O)NC(=O)[C@H](C(C)C)NC(=O)[C@H](CC3CCCCC3)NC(=O)[C@H](CCN)NC(=O)[C@@H](CC(C)C)NC(=O)[C@H](CCCNC(N)=O)NC(=O)[C@H](Cc3ccc(OCC(=O)O)cc3)NC(=O)[C@H](Cc3ccc(-c4ccccc4)cc3)NC(=O)[C@H](Cc3ccc(O)cc3)NC2=O)c1 (stereo partly drawn) [Compound 3371] ({CH2CO}-RY(Carboxymethyl)D[Phe(3-Me)]Y[Bip]Y(Carboxymethyl)[Cit][dL][Dab][Cha]V[Thr(3ξ)]C[Dab][Aun]-OH; thioether N-14) | 9.4 nM
Cc1cccc(C[C@@H]2NC(=O)[C@H](CC(=O)O)NC(=O)[C@H](Cc3ccc(OCC(=O)O)cc3)NC(=O)[C@H](CCCNC(=N)N)NC(=O)CSC[C@@H](C(=O)N[C@@H](CCN)C(=O)NCCCCCCCCCCC(=O)O)NC(=O)[C@H](CCCNC(N)=O)NC(=O)[C@H](C(C)C)NC(=O)[C@H](CC3CCCCC3)NC(=O)[C@H](CCN)NC(=O)[C@@H](CC(C)C)NC(=O)[C@H](CCC(N)=O)NC(=O)[C@H](Cc3ccc(OCC(=O)O)cc3)NC(=O)[C@H](Cc3ccc(-c4ccccc4)cc3)NC(=O)[C@H](CC(C)C)NC2=O)c1 [Compound 3372] ({CH2CO}-RY(Carboxymethyl)D[Phe(3-Me)]L[Bip]Y(Carboxymethyl)Q[dL][Dab][Cha]V[Cit]C[Dab][Aun]-OH; thioether N-14) | 11.6 nM
Cc1cccc(C[C@@H]2NC(=O)[C@H](CC(=O)O)NC(=O)[C@H](Cc3ccc(OCC(=O)O)cc3)NC(=O)[C@H](CCCNC(=N)N)NC(=O)CSC[C@@H](C(=O)N[C@@H](CCN)C(=O)NCCCCCCCCCCC(=O)O)NC(=O)[C@H](C(C)O)NC(=O)[C@H](C(C)C)NC(=O)[C@H](CC3CCCCC3)NC(=O)[C@H](CCN)NC(=O)[C@@H](CC(C)C)NC(=O)[C@H](CCC(=O)O)NC(=O)[C@H](Cc3ccc(O)cc3)NC(=O)[C@H](Cc3ccc(-c4ccccc4)cc3)NC(=O)[C@H](Cc3ccc(O)cc3)NC2=O)c1 (stereo partly drawn) [Compound 3373] ({CH2CO}-RY(Carboxymethyl)D[Phe(3-Me)]Y[Bip]YE[dL][Dab][Cha]V[Thr(3ξ)]C[Dab][Aun]-OH; thioether N-14) | 27.4 nM
Cc1cccc(C[C@@H]2NC(=O)[C@H](CC(=O)O)NC(=O)[C@H](Cc3ccc(OCC(=O)O)cc3)NC(=O)[C@H](CC(N)=O)NC(=O)CSC[C@@H](C(=O)N[C@@H](CCN)C(=O)NCCCCCCCCCCC(=O)O)NC(=O)[C@H](C(C)O)NC(=O)[C@H](C(C)C)NC(=O)[C@H](CC3CCCCC3)NC(=O)[C@H](CCN)NC(=O)[C@@H](CC(C)C)NC(=O)[C@H](CCN)NC(=O)[C@H](Cc3ccc(O)cc3)NC(=O)[C@H](Cc3ccc(-c4ccccc4)cc3)NC(=O)[C@H](CC(C)C)NC2=O)c1 (stereo partly drawn) [Compound 3374] ({CH2CO}-NY(Carboxymethyl)D[Phe(3-Me)]L[Bip]Y[Dab][dL][Dab][Cha]V[Thr(3ξ)]C[Dab][Aun]-OH; thioether N-14) | 31.6 nM
Cc1cccc(C[C@@H]2NC(=O)[C@H](CC(=O)O)NC(=O)[C@H](Cc3ccc(OCC(=O)O)cc3)NC(=O)[C@H](CC(N)=O)NC(=O)CSC[C@@H](C(=O)NCCCCCCCCCCC(=O)O)NC(=O)[C@H](CCC(=O)O)NC(=O)[C@H](C(C)C)NC(=O)[C@H](CC3CCCCC3)NC(=O)[C@H](CCN)NC(=O)[C@@H](CC(C)C)NC(=O)[C@H](CCCN)NC(=O)[C@H](Cc3ccc(O)cc3)NC(=O)[C@H](Cc3ccc(-c4ccccc4)cc3)NC(=O)[C@H](C(C)C)NC2=O)c1 [Compound 3375] ({CH2CO}-NY(Carboxymethyl)D[Phe(3-Me)]V[Bip]Y[Orn][dL][Dab][Cha]VEC[Aun]-OH; thioether N-14) | 12.3 nM
Cc1cccc(C[C@@H]2NC(=O)[C@H](CC(=O)O)NC(=O)[C@H](Cc3ccc(OCC(=O)O)cc3)NC(=O)[C@H](CC(N)=O)NC(=O)CSC[C@@H](C(=O)N[C@@H](CCC(=O)O)C(=O)NCCCCCCCCCCC(=O)O)NC(=O)[C@H]([C@H](C)O)NC(=O)[C@H](C(C)C)NC(=O)[C@H](CC3CCCCC3)NC(=O)[C@H](CCN)NC(=O)[C@@H](CC(C)C)NC(=O)[C@H](CCCN)NC(=O)[C@H](Cc3ccc(O)cc3)NC(=O)[C@H](Cc3ccc(-c4ccccc4)cc3)NC(=O)[C@H](C(C)C)NC2=O)c1 [Compound 3376] ({CH2CO}-NY(Carboxymethyl)D[Phe(3-Me)]V[Bip]Y[Orn][dL][Dab][Cha]V[aThr]CE[Aun]-OH; thioether N-14) | 14.8 nM
Cc1cccc(C[C@@H]2NC(=O)[C@H](CC(=O)O)NC(=O)[C@H](Cc3ccc(OCC(=O)O)cc3)NC(=O)[C@H](CC(N)=O)NC(=O)CSC[C@@H](C(=O)N[C@@H](CCN)C(=O)NCCCCCCCCCCC(=O)O)NC(=O)[C@H]([C@H](C)O)NC(=O)[C@H](C(C)C)NC(=O)[C@H](CC3CCCCC3)NC(=O)[C@H](CCN)NC(=O)[C@@H](CC(C)C)NC(=O)[C@H](CCCN)NC(=O)[C@H](Cc3ccc(O)cc3)NC(=O)[C@H](Cc3ccc(-c4ccccc4)cc3)NC(=O)[C@H](C(C)C)NC2=O)c1 [Compound 3377] ({CH2CO}-NY(Carboxymethyl)D[Phe(3-Me)]V[Bip]Y[Orn][dL][Dab][Cha]V[aThr]C[Dab][Aun]-OH; thioether N-14) | 13.5 nM
